The test system of the data set is CCRIS mutagenicity, Ames/micronucleus/aberration tests. Kind of data set: CCRIS mutagenicity studies.

We go through 2 compounds from PubChem BioAssay AID1259407 (Chemical Carcinogenesis Research Information System (CCRIS), 2018).

Calls of active or inactive are those of the source. No rule for the calls is given here.

On to `CC(C)(OOC(C)(C)c1ccccc1)c1ccccc1`, for which the mutagenic call was “inactive; negative” (Test System: AMES SALMONELLA TYPHIMURIUM, Strain/Indicator: TA97, Metabolic Activation: HAMSTER, LIVER, S-9, AROCLOR 1254 (10 OR 30%), Method: PREINCUBATION); “inactive; negative” (Test System: AMES SALMONELLA TYPHIMURIUM, Strain/Indicator: TA97, Metabolic Activation: NONE, Method: PREINCUBATION); “inactive; negative” (Test System: AMES SALMONELLA TYPHIMURIUM, Strain/Indicator: TA97, Metabolic Activation: RAT, LIVER, S-9, AROCLOR 1254 (10 OR 30%), Method: PREINCUBATION); “inactive; negative” (Test System: AMES SALMONELLA TYPHIMURIUM, Strain/Indicator: TA97A, Metabolic Activation: MOUSE LIVER S-9, AROCLOR 1254, Method: PREINCUBATION); “inactive; negative” (Test System: AMES SALMONELLA TYPHIMURIUM, Strain/Indicator: TA97A, Metabolic Activation: NONE, Method: PREINCUBATION); “inactive; negative” (Test System: AMES SALMONELLA TYPHIMURIUM, Strain/Indicator: TA97A, Metabolic Activation: RAT LIVER S-9, AROCLOR 1254, Method: PREINCUBATION). For the same compound, the mutagenic call (Test System: AMES SALMONELLA TYPHIMURIUM, Strain/Indicator: TA98, Metabolic Activation: HAMSTER, LIVER, S-9, AROCLOR 1254 (10 OR 30%), Method: PREINCUBATION) is “inactive; negative”; the mutagenic call (Test System: AMES SALMONELLA TYPHIMURIUM, Strain/Indicator: TA98, Metabolic Activation: NONE, Method: FLUCTUATION (MICROTITER)) is “inactive; negative”; the mutagenic call (Test System: AMES SALMONELLA TYPHIMURIUM, Strain/Indicator: TA98, Metabolic Activation: NONE, Method: PREINCUBATION) was “inactive; negative”; the mutagenic call (Test System: AMES SALMONELLA TYPHIMURIUM, Strain/Indicator: TA98, Metabolic Activation: RAT LIVER S-9, AROCLOR 1254, Method: FLUCTUATION (MICROTITER)) is “inactive; negative”; the mutagenic call (Test System: AMES SALMONELLA TYPHIMURIUM, Strain/Indicator: TA98, Metabolic Activation: RAT, LIVER, S-9, AROCLOR 1254 (10 OR 30%), Method: PREINCUBATION) is “inactive; negative”; the mutagenic call (Test System: AMES SALMONELLA TYPHIMURIUM, Strain/Indicator: TA100, Metabolic Activation: HAMSTER, LIVER, S-9, AROCLOR 1254 (10 OR 30%), Method: PREINCUBATION) is “inactive; negative”. Besides, the mutagenic call runs as follows: (Test System: AMES SALMONELLA TYPHIMURIUM, Strain/Indicator: TA100, Metabolic Activation: MOUSE LIVER S-9, AROCLOR 1254, Method: PREINCUBATION) “inactive; negative”; (Test System: AMES SALMONELLA TYPHIMURIUM, Strain/Indicator: TA100, Metabolic Activation: NONE, Method: PREINCUBATION) “inactive; negative”; (Test System: AMES SALMONELLA TYPHIMURIUM, Strain/Indicator: TA100, Metabolic Activation: RAT LIVER S-9, AROCLOR 1254, Method: PREINCUBATION) “inactive; negative”; (Test System: AMES SALMONELLA TYPHIMURIUM, Strain/Indicator: TA100, Metabolic Activation: RAT, LIVER, S-9, AROCLOR 1254 (10 OR 30%), Method: PREINCUBATION) “inactive; negative”; (Test System: AMES SALMONELLA TYPHIMURIUM, Strain/Indicator: TA102, Metabolic Activation: NONE, Method: PREINCUBATION) “inactive; negative”; (Test System: AMES SALMONELLA TYPHIMURIUM, Strain/Indicator: TA102, Metabolic Activation: RAT LIVER S-9, AROCLOR 1254, Method: PREINCUBATION) “inactive; negative”. Also, the mutagenic call is, setting by setting: (Test System: AMES SALMONELLA TYPHIMURIUM, Strain/Indicator: TA104, Metabolic Activation: MOUSE LIVER S-9, AROCLOR 1254, Method: PREINCUBATION) “inactive; negative”; (Test System: AMES SALMONELLA TYPHIMURIUM, Strain/Indicator: TA104, Metabolic Activation: NONE, Method: PREINCUBATION) “inactive; negative”; (Test System: AMES SALMONELLA TYPHIMURIUM, Strain/Indicator: TA104, Metabolic Activation: RAT LIVER S-9, AROCLOR 1254, Method: PREINCUBATION) “inactive; negative”; (Test System: AMES SALMONELLA TYPHIMURIUM, Strain/Indicator: TA1535, Metabolic Activation: HAMSTER, LIVER, S-9, AROCLOR 1254 (10 OR 30%), Method: PREINCUBATION) “inactive; negative”; (Test System: AMES SALMONELLA TYPHIMURIUM, Strain/Indicator: TA1535, Metabolic Activation: NONE, Method: PREINCUBATION) “inactive; negative”; (Test System: AMES SALMONELLA TYPHIMURIUM, Strain/Indicator: TA1535, Metabolic Activation: RAT, LIVER, S-9, AROCLOR 1254 (10 OR 30%), Method: PREINCUBATION) “inactive; negative”. Also, the mutagenic call is “inactive; negative” (Test System: AMES SALMONELLA TYPHIMURIUM, Strain/Indicator: TA1537, Metabolic Activation: NONE, Method: FLUCTUATION (MICROTITER)); “inactive; negative” (Test System: AMES SALMONELLA TYPHIMURIUM, Strain/Indicator: TA1537, Metabolic Activation: RAT LIVER S-9, AROCLOR 1254, Method: FLUCTUATION (MICROTITER)); “inactive; negative” (Test System: AMES SALMONELLA TYPHIMURIUM, Strain/Indicator: TA7001, Metabolic Activation: NONE, Method: FLUCTUATION (MICROTITER)); “inactive; negative” (Test System: AMES SALMONELLA TYPHIMURIUM, Strain/Indicator: TA7001, Metabolic Activation: RAT LIVER S-9, AROCLOR 1254, Method: FLUCTUATION (MICROTITER)); “inactive; negative” (Test System: AMES SALMONELLA TYPHIMURIUM, Strain/Indicator: TA7002, Metabolic Activation: NONE, Method: FLUCTUATION (MICROTITER)); “inactive; negative” (Test System: AMES SALMONELLA TYPHIMURIUM, Strain/Indicator: TA7002, Metabolic Activation: RAT LIVER S-9, AROCLOR 1254, Method: FLUCTUATION (MICROTITER)). In addition, the mutagenic call runs as follows: (Test System: AMES SALMONELLA TYPHIMURIUM, Strain/Indicator: TA7003, Metabolic Activation: NONE, Method: FLUCTUATION (MICROTITER)) “inactive; negative”; (Test System: AMES SALMONELLA TYPHIMURIUM, Strain/Indicator: TA7003, Metabolic Activation: RAT LIVER S-9, AROCLOR 1254, Method: FLUCTUATION (MICROTITER)) “inactive; negative”; (Test System: AMES SALMONELLA TYPHIMURIUM, Strain/Indicator: TA7004, Metabolic Activation: NONE, Method: FLUCTUATION (MICROTITER)) “inactive; negative”; (Test System: AMES SALMONELLA TYPHIMURIUM, Strain/Indicator: TA7004, Metabolic Activation: RAT LIVER S-9, AROCLOR 1254, Method: FLUCTUATION (MICROTITER)) “inactive; negative”; (Test System: AMES SALMONELLA TYPHIMURIUM, Strain/Indicator: TA7005, Metabolic Activation: NONE, Method: FLUCTUATION (MICROTITER)) “inactive; negative”; (Test System: AMES SALMONELLA TYPHIMURIUM, Strain/Indicator: TA7005, Metabolic Activation: RAT LIVER S-9, AROCLOR 1254, Method: FLUCTUATION (MICROTITER)) “inactive; negative”. Also, the mutagenic call by setting is: (Test System: AMES SALMONELLA TYPHIMURIUM, Strain/Indicator: TA7006, Metabolic Activation: NONE, Method: FLUCTUATION (MICROTITER)) “inactive; negative”; (Test System: AMES SALMONELLA TYPHIMURIUM, Strain/Indicator: TA7006, Metabolic Activation: RAT LIVER S-9, AROCLOR 1254, Method: FLUCTUATION (MICROTITER)) “inactive; negative”.
Take `[N-]=[N+]=NCc1ccccc1`: the mutagenic call (End Point: IN VITRO CHROMOSOMAL ABERRATIONS, Test System: CHL CELLS, Metabolic Activation: NONE) was “inactive; negative”; the mutagenic call (End Point: IN VITRO CHROMOSOMAL ABERRATIONS, Test System: CHL CELLS, Metabolic Activation: RAT, LIVER, S-9, SODIUM PHENOBARBITAL AND 5,6-BENZOFLAVONE) was “inactive; negative”; the mutagenic call (Test System: AMES SALMONELLA TYPHIMURIUM, Strain/Indicator: TA100, Metabolic Activation: RAT, LIVER, S-9, PCB, Method: PREINCUBATION) was “active; positive”.
